SMILES strings stand for the structures.

The nature of data set [1]: method code SF-HPLC, from Huang, H.; YU, D.; Wang, C.; Shi, S.; Shi, J. (2014). Determination of apparent oil/water partition coefficient of spinosin. Yaowu fenxi zazhi, 34(3)497-499. The settings on record: pH 7.4.
A short description of data set [2]: method code SF-HPLC, from Xiong, Ð. (2009). Apparent partiton coefficient of hawthorn leaf flavonoids in phospholipids complex. Chinese Traditional Patent Medicine, 31(7)1075-1078.
Data set [3] is described as follows: method code SF-AS, from PMID: 4762845. The settings on record: pH 1.0.
Data set [4] in a line: method code SF-HPLC, from DOI: 10.1211/0022357001774101, PMID: 10813545.
Assay in data set [5]: not given
This is another data set of the same source.

The nature of data set [6]: method code SF-AS, from PMID: 7170648. The settings on record: pH 7.4.
Data set [7] can be described thus: method code SF-AS, from DOI: 10.3109/00498258809055142, PMID: 3354228.
Assay in data set [8]: not given
The source holds these as a separate data set.

Assay in data set [9]: not given
The source holds these as a separate data set.

The nature of data set [10]: method code SF-HPLC, from PMID: 8932441. The settings on record: pH 7.4.
Assay in data set [11]: not given
This is another data set of the same source.

Assay in data set [12]: not given
The source holds these as a separate data set.

Assay in data set [13]: not given
The source holds these as a separate data set.

Assay in data set [14]: not given
This is another data set of the same source.

Data set [15] in a line: method code SF-HPLC, from PMID: 3219139. The settings on record: pH 9.0.
A short description of data set [16]: method code SF-HPLC, from DOI: 10.1016/j.ijpharm.2014.07.033, PMID: 25079434. The settings on record: pH 7.4.
Assay in data set [17]: not given
This is another data set of the same source.

The nature of data set [18]: method code SF-RC, from DOI: 10.1016/s0022-2275(20)42614-8, PMID: 2280184. The settings on record: pH 1.0.
Data set [19] in a line: method code SF-RC, from DOI: 10.1016/0378-5173(86)90124-9.
A short description of data set [20]: method code SF, from Huang, J.; Leng, X. (1993). Interaction of rat hepatocyte and cytochrome P 450 with pyrethroids in vitro. Dong Wu Xue Bao, 39(4)418-423.
Assay in data set [21]: not given
The source holds these as a separate data set.

Assay in data set [22]: not given
The source holds these as a separate data set.

A short description of data set [23]: method code SF-RC, from PMID: 9639294. The following applies: pH 7.5.
Data set [24] in a line: method code SF-GLC, from DOI: 10.1021/je990149u.
Assay in data set [25]: not given
This is another data set of the same source.

Assay in data set [26]: not given
The source holds these as a separate data set.

Data set [27] is described as follows: method code SF-HPLC, from DOI: 10.1016/0378-5173(91)90409-h. The settings on record: pH 7.4.
Data set [28] in a line: from Courrière, P.; Paubel, J.P.; Nivière, P.; Foussard-Blaspin, O. (1978). Structure-activity study in a series of local anesthetic agents. I. Physicochemical properties and molecular orbital study. ….
Assay in data set [29]: not given
The source holds these as a separate data set.

Data set [30] is described as follows: method code SF-HPLC, from DOI: 10.1023/a:1016359301852, PMID: 24271710.
Data set [31] can be described thus: method code SF-AS, from DOI: 10.1248/cpb.25.1350, PMID: 890858. The following applies: pH 6.5.
Assay in data set [32]: not given
This is another data set of the same source.

Assay in data set [33]: not given
This is another data set of the same source.

Data set [34] is described as follows: method code SF, from DOI: 10.1016/j.bmcl.2013.12.011, PMID: 24342238.
Assay in data set [35]: not given
The source holds these as a separate data set.

A short description of data set [36]: method code SF-AS, from DOI: 10.1021/ja00198a050.
Assay in data set [37]: not given
This is another data set of the same source.

Data set [38] can be described thus: method code SF-EIA, from DOI: 10.1016/s0022-2275(20)42614-8, PMID: 2280184. The following applies: pH 1.0.

For `COc1cc2oc(-c3ccc(O)cc3)cc(=O)c2c(O)c1[C@@H]1O[C@H](CO)[C@@H](O)[C@H](O)[C@H]1O[C@@H]1O[C@H](CO)[C@@H](O)[C@H](O)[C@H]1O`, the log distribution coefficient (logD) (in general, the decadic logarithm of the distribution of all forms, ionised or not, between an organic phase and buffer at a given pH) in data set [1] came to 0.56.

On to `C[C@@H]1O[C@@H](OC[C@H]2O[C@@H](Oc3c(-c4ccc(O)c(O)c4)oc4cc(O)cc(O)c4c3=O)[C@H](O)[C@@H](O)[C@@H]2O)[C@H](O)[C@H](O)[C@H]1O`, for which the lipophilicity (logP) (as a rule, a log measure of how a compound divides between an organic and an aqueous phase) in data set [2] was -0.09. The compound `C[C@]12CC[C@H](O)C[C@H]1CC[C@@H]1[C@@H]2CC[C@]2(C)[C@@H](c3ccc(=O)oc3)CC[C@]12O` showed a logP of 3.34. In turn, `O=C(CCOCCOCCOCCOCCC(=O)Nc1c(I)cc(I)c(C(=O)O)c1I)Nc1c(I)cc(I)c(C(=O)O)c1I` returned a pH-dependent lipophilicity (logD) in data set [3] of 1.42. Regarding `C[C@]12CC[C@H]3[C@@H](CCC4=CC(=O)CC[C@@]43C)[C@@H]1CC[C@@H]2OC(=O)CCC1CCCC1`, in data set [4], the logP amounted to 4.89. Turning to `CC(=O)N(O)CCCCCNC(=O)CCC(=O)N(O)CCCCCNC(=O)CCC(=O)N(O)CCCCCN`, the lipophilicity (logP) in data set [5] was -1.52. Turning to `CCN(CC)C(=O)N1CCN(Cc2cc(Nc3ccnc4cc(Cl)ccc34)ccc2O)CC1`, in data set [6], the logD was determined as 3.95. In data set [7], `OCCN1CCN(CCCN2c3ccccc3C=Cc3ccccc32)CC1` returned a logP of 3. As to `c1cc2ccc3ccc4ccc5ccc6ccc1c1c2c3c4c5c61`, the log partition coefficient (logP) in data set [8] was 7.64. In the case of `CC(=O)O[C@]1(C(C)=O)CC[C@H]2[C@@H]3C[C@H](F)C4=CC(=O)CC[C@]4(C)[C@H]3CC[C@@]21C`, in [9], the log partition coefficient (logP) is 3.48.

`CCCCOC(=O)NS(=O)(=O)c1ccccc1-c1ccc(Cn2c(CCC)nc(CC)c2C(C)=O)c(F)c1` yielded a logD in [10] of 1.72. The compound `CC(C)(C)CC(=O)N1CCC(N(c2ccc(C(F)(F)F)cc2)c2cccnc2)CC1` came in with a lipophilicity (logP) in [11] of 4.2. Consider `COc1ccc(CCN(C)CCCC(C#N)(c2cc(OC)c(OC)c(OC)c2)C(C)C)cc1OC` (centres undefined), for which the logP in [12] amounted to 3.71.

On to `N#CC(CCN1CCC(C(N)=O)(N2CCCCC2)CC1)(c1ccccc1)c1ccccc1`, for which the logP in data set [13] came to 3.91. `CCCCC(CC)COC(=O)c1ccccc1C(=O)OCC(CC)CCCC` (centres undefined) returned a logP in [14] of 7.3. In data set [15], `COC(=O)C1=C(C)NC(C)=C(C(=O)O[C@@H]2CCCN(Cc3ccccc3)C2)[C@@H]1c1cccc([N+](=O)[O-])c1` (relative stereo) had a pH-dependent lipophilicity (logD) of 3.47. In turn, `CNC(=O)c1cccc2c(Nc3ccc(NS(C)(=O)=O)cc3OC)c3cccc(C)c3nc12` gave a pH-dependent lipophilicity (logD) in [16] of 3.26. For the compound `COc1cccc2c1C(=O)c1c(O)c3c(c(O)c1C2=O)C[C@@](O)(C(=O)CO)C[C@@H]3O[C@H]1C[C@H](N)[C@H](I)[C@H](C)O1`, the logP in data set [17] was 1.53.

Turning to `CC(CCC(=O)NCC(=O)O)C1CCC2C3CCC4CC(O)CCC4(C)C3CC(O)C12C` (stereo in doubt), in data set [18], the pH-dependent lipophilicity (logD) stood at 2.25.

`CCCCC[C@H](O)/C=C/[C@@H]1[C@@H](C/C=C\CCCC(=O)OCc2ccccc2)[C@@H](O)C[C@H]1O` registered a log partition coefficient (logP) in [19] of 4.11.

In turn, `CC(C)C(C(=O)OC(C#N)c1cccc(Oc2ccccc2)c1)c1ccc(OC(F)F)cc1` (centres undefined) had a logP in [20] of 5.55. Turning to `CN1CCc2cc(Cl)c(O)cc2[C@@H](c2ccc(SCc3ccccc3)cc2)C1`, the logP in data set [21] turned out to be 3.78. Take `c1cncc(-c2cnn3cc(-c4ccc(OCCN5CCCCC5)cc4)cnc23)c1`: the logP in data set [22] is 3.4. The compound `CCOC(=O)C1=C(COCCOCCNC(=O)C(C)(C)C)NC(C)=C(C(=O)OC)C1c1cccc(Cl)c1Cl` (centres undefined) came in with a logD in [23] of 2.12.

`CCCCCCCCCCOC(=O)c1ccccc1C(=O)OCCCCCCCCCC` had a logP in [24] of 9.05. With `CCCCCCCCCCCCC(Br)C(=O)OCC1OC(n2cc(C)c(=O)[nH]c2=O)CC1N=[N+]=[N-]` (centres undefined), the logP in [25] was determined as 8.14. The compound `COC(=O)CC(O)CC(O)C=Cn1c(C(C)C)nc(-c2ccncc2)c1-c1ccc(F)cc1` (centres undefined) showed a log partition coefficient (logP) in [26] of 0.9. Turning to `NC(=O)[C@@H]1CCCN1C(=O)[C@H](Cc1cn(C2OC(=O)c3ccccc32)cn1)NC(=O)[C@@H]1CCC(=O)N1` (some centres undefined), in data set [27], the pH-dependent lipophilicity (logD) was -1.25. Turning to `CCN(CC)CCCN(C(=O)Cc1ccccc1)c1c(C)cccc1C`, in data set [28], the lipophilicity (logP) came out at 4.94. Take `Cc1cc(C(=O)Nc2ccc(-c3ccccc3S(N)(=O)=O)cc2)n(-c2ccc3onc(N)c3c2)n1`: the logP in data set [29] stood at 2.1. As to `C#CC1(OC(=O)c2ccn(C)c2)CCC2C3CCC4=CC(=O)CCC4C3CCC21C` (centres undefined), the logP in [30] amounted to 4.44. For the compound `CCC(=O)OCc1c(CSSCc2cnc(C)c(OC(=O)CC)c2COC(=O)CC)cnc(C)c1OC(=O)CC`, the log distribution coefficient (logD) in data set [31] was 2.68. Compound `COc1ccc(C=Cc2ccc(C=Cc3ccc(OC)c(C(F)(F)F)c3)c(O)c2)cc1C(F)(F)F` displayed a log partition coefficient (logP) in data set [32] of 7.17.

Consider `CCCN(CCCCN1C(=O)CC2(CCCC2)CC1=O)C1COc2cccc(OC)c2C1` (centres undefined), for which, in data set [33], the logP stood at 4.8. The compound `CN(C)Cc1cc(C=CC(=O)C=C(O)C=Cc2ccc(O)c(N(C)C)c2)ccc1O` had a logP in data set [34] of 3.48. As to `CC(C)C(NC(=O)CN1C(=O)C(NC(=O)NCc2cc[n+]([O-])cc2)CC=C1c1ccccc1)C(=O)C(F)(F)F` (centres undefined), the lipophilicity (logP) in [35] amounted to 1.13. In turn, `CC(C)(C)c1ccc2c(c1)OCCOCCOCCOCCOCCOCCOCCOCCO2` displayed a lipophilicity (logP) in data set [36] of 1.89. `O=C(NNCc1ccncc1)C1CCCN1C(=O)C(Cc1ccc(Cl)c(Cl)c1)NS(=O)(=O)Cc1ccccc1` (centres undefined): the logP in data set [37] came out at 2.57. Regarding `C[C@H](CCC(=O)O)[C@H]1CC[C@H]2[C@@H]3C[C@H](O)[C@@H]4C[C@H](O)CC[C@]4(C)[C@H]3CC[C@]12C`, in data set [38], the log distribution coefficient (logD) came to 3.08.

(Values after the SangsterLogP compilation.)
